Laboratory results published in patent US8968997B2, “Benzoxazole-based fluorescent metal ion indicators” (Life Technologies Corporation, priority 2008, dated 2015).
Several values for one entry are separate records, joined by “and”; a condition that tells them apart may be missing. Equal values may be shown once.

What was measured:
[1] = Spectrofluorimetry studies: excitation and emission spectra and ratiometric response to metal ion binding; format: physicochemical; conditions: for λabs (UV), (nm): indicator 1-2 μM in 30 mM MOPS, 100 mM KCl buffer; for λemiss (nm) / λexcit (nm): position of maxima for two ratiometric peaks, 30 mM MOPS, 100 mM KCl, 0 to 200 nM free calcium ion
Description: (§1) The excitation and emission spectra of solutions of various ion indicators (concentration 1-2 μM) were recorded in 30 mM MOPS and 100 mM KCl buffers containing 0 to 200 nM free calcium ion. The binding constant values were calculated based on 8-10 data points taken in buffers covering the concentration range appropriate for the Kd value. Spectral curves for derivatives of Compound 7 (with different R substitutents) were recorded using a standard spectrofluorimeter.
FIGS. 1-3 show excitation and emission spectra for several of the tested compounds. […]

[2] = Spectrofluorimetry studies: calcium binding constant (Kd) of ion indicators; conditions: 30 mM MOPS, 100 mM KCl buffers; calculated from 8-10 data points; read-out: Kd(Ca^2+)
Description: as §1

[3] = tested on: Jurkat T-cell leukemia cultured cells; assay: Flow cytometry studies: intracellular calcium response of dye-loaded cells after stimulant; format: cell-based; conditions: Jurkat cells loaded with 4 μM cell-permeant compound, 355 nm excitation
Description: Jurkat T-cell leukemia cultured cells were washed once with Hanks Buffered Salt Solution (HBSS) containing calcium and resuspended in HBSS at a concentration of 2×10^6/ml. A one (1) mL cell suspension was added to a 12×75 mm test tube. A cell-permeant compound (7e or 7f) was added to the cell suspension at a final concentration of 4 μM. The cell/dye mixture was mixed and placed at 37° C. protected from light for 30 minutes. The sample then was washed once with HBSS pre-warmed to 37° C. and the cell pellet was resuspended in one mL warmed HBSS. The sample rested for 15 minutes at 37° C. protected from light. […] Analysis of the data was performed using a dual parameter plot of time versus fluorescence ratio of the emissions as measured by 495/20:424/44 ratio. […] A plot of time versus fluorescence ratio for cells that have been loaded with the tested compound was collected upon addition of ionomycin or CD3 stimulant after baseline measurement. […] For Compound 7e, the ratio of the mean fluorescence as measured yielded an increase of 3.4× with ionomycin stimulation (A), an expected response which was maintained over time. The ratio of the mean fluorescence as measured gave an increase of 2.8× with CD3 stimulation (B), an expected response which decreased slightly over time. […]

SMILES | λabs (UV), (nm) [1] | λemiss (nm) [1] | λexcit (nm) [1] | Kd [2] | increase of ratio of mean fluorescence (495/20:424/44 emission ratio) after stimulant vs baseline ([3]; 1 μM ionomycin stimulation) | increase of ratio of mean fluorescence (495/20:424/44 emission ratio) after stimulant vs baseline ([3]; CD3 stimulation)
Cc1ccc(N(CC(=O)O)CC(=O)O)c(OCCOc2cc3nc(/C=C/c4ccc(N(C)C)c5ccccc45)oc3cc2N(CC(=O)O)CC(=O)O)c1 [Compound 7p] | 392 nm | 586 nm | 392 nm | 290 nM | – | –
Cc1ccc(N(CC(=O)O)CC(=O)O)c(OCCOc2cc3nc(-c4cc5c6c(c4)CCCN6CCC5)oc3cc2N(CC(=O)O)CC(=O)O)c1 [Compound 7h] | 375 nm | 435-510 nm | 375 nm | 145 nM | – | –
Cc1ccc(N(CC(=O)O)CC(=O)O)c(OCCOc2cc3nc(/C=C/c4cc5c6c(c4)CCCN6CCC5)oc3cc2N(CC(=O)O)CC(=O)O)c1 [Compound 7q] | 413 nm | 548 nm | 413 nm | 80 nM | – | –
Cc1ccc(N(CC(=O)O)CC(=O)O)c(OCCOc2cc3nc(-c4ccc5cc(N(C)C)ccc5c4)oc3cc2N(CC(=O)O)CC(=O)O)c1 [Compound 7r] | 373 nm | 496 nm | 373 nm | 129 nM | – | –
Cc1ccc(N(CC(=O)O)CC(=O)O)c(OCCOc2cc3nc(-c4cccc(=O)[nH]4)oc3cc2N(CC(=O)O)CC(=O)O)c1 [Compound 7j] | 366 nm | 567 nm | 349-392 nm | 146 nM | – | –
Cc1ccc(N(CC(=O)O)CC(=O)O)c(OCCOc2cc3nc(-c4cc5cc6c7c(c5oc4=O)CCCN7CCC6)oc3cc2N(CC(=O)O)CC(=O)O)c1 [Compound 7t] | 472 nm | 520 nm | 472 nm | 156 nM | – | –
Cc1ccc(N(CC(=O)O)CC(=O)O)c(OCCOc2cc3nc(-c4ccc5nonc5c4)oc3cc2N(CC(=O)O)CC(=O)O)c1 [Compound 7l] | 330 nm and 440 (non- nm | 490 nm | 324-364 nm | 157 nM | – | –
COc1cc(N(C)C)ccc1-c1nc2cc(OCCOc3cc(C)ccc3N(CC(=O)O)CC(=O)O)c(N(CC(=O)O)CC(=O)O)cc2o1 [Compound 7f] | 363 nm | 417-475 nm | 363 nm | 103 nM | 3.2 × | 2.8 ×
Cc1ccc(N(CC(=O)O)CC(=O)O)c(OCCOc2cc3nc(-c4ccc(N(C)C)cc4O)oc3cc2N(CC(=O)O)CC(=O)O)c1 [Compound 7g] | 363 nm | 417-496 nm | 363 nm | 85 nM | – | –
Cc1ccc(N(CC(=O)O)CC(=O)O)c(OCCOc2cc3nc(-c4nc5ccccc5s4)oc3cc2N(CC(=O)O)CC(=O)O)c1 [Compound 7i] | 364 nm | 569 nm | 361-422 nm | 309 nM | – | –
Cc1ccc(N(CC(=O)O)CC(=O)O)c(OCCOc2cc3nc(-c4cc[n+]([O-])cc4)oc3cc2N(CC(=O)O)CC(=O)O)c1 [Compound 7k] | 357 nm | 612 nm | 356-425 nm | 304 nM | – | –
